Measured values published in US5102897A, “3,5-ditertiarybutyl-4-hydroxyphenyl, 1,3,4-thiadiazoles and oxadiazoles linked by carbon, oxygen, and sulfur residues” (Warner-Lambert Company, priority 1991, dated 1992).

Columns and labels:
5-Lipoxygenase = target: T1, 5-Lipoxygenase (Rattus norvegicus, UniProt P12527); assay: ARBL whole cell 5-lipoxygenase assay (RBL-1 cells, LTB4 formation, RIA); type: cell-based; settings: RBL-1 whole cells; for inhibition at 16 µM / inhibition at 10 µM: A23187, read-out: ARBL: Percent inhibition of LTB4 @ μM noted; for IC50: calcium ionophore A23187 (5 μM), read-out: ARBL: IC50 for LTB4 inhibition
T1 construct: host or cells: RBL-1 (rat basophilic leukemia)
T1 sequence (P12527 1-673): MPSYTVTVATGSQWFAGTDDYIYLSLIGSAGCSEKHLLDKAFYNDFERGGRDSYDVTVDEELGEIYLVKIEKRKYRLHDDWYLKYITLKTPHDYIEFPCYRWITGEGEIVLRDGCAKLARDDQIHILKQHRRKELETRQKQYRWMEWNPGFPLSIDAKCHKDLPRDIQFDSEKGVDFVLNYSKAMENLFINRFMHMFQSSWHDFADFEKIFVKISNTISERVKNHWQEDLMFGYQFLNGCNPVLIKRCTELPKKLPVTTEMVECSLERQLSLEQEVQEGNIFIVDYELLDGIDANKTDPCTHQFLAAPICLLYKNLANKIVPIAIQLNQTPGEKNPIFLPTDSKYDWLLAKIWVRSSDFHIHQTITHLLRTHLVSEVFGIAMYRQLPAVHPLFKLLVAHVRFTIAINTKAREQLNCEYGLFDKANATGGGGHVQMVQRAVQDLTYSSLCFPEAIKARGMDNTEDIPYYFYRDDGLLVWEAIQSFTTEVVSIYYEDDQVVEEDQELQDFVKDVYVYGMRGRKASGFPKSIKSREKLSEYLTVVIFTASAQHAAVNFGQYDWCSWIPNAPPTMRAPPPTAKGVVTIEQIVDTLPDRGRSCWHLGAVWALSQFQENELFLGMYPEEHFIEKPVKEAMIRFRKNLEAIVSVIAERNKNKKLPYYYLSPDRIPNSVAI
Procedure: (§1) ARBL/ARBC Whole Cell 5-Lipoxygenase and Cyclooxygenase Assays
(§2) The rat basophilic leukemia cell line (RBL-1) was obtained from the American Type Culture Collection (Rockville, MD).
(§3) Radioimmunoassay (RIA) kits of LTB4 and PGF2.sbsb.α were obtained from Amersham (Arlington Heights, Ill.) and Seragen (Boston, Mass.), respectively.
(§4) RBL-1 cells are grown in suspension culture in Eagle's minimum essential medium supplemented with 12% fetal bovine serum at 37° C. in an incubator supplied with air-5% carbon dioxide. Cells are harvested by centrifugation. They are washed with cold phosphate buffered saline pH 7.4 (PBS; NaCl, 7.1 g; Na2 HPO4, 1.15 g; KH2 PO4, 0.2 g; and KCl, 0.2 g/L). Cells are finally suspended in PBS containing 1.0 mM calcium at a density of 2×10^6 cells/mL. Cells are incubated with and without test agent (in DMSO) (1% DMSO is without effect on arachidonic acid metabolism) for ten minutes at room temperature. Calcium ionophore A23187 (5 μM) is added and cells are incubated for 7 minutes at 37° C. The reaction is stopped by chilling the tubes on ice for 10 minutes. Cells are separated by centrifugation and the supernatant is stored at -20° C. Aliquots (100 μL) are analyzed for LTB4 and PGF2.sbsb.α using radioimmunoassay kits as provided by the supplier.
(§5) Table 1 contains biochemical data obtained from this whole cell assay as IC50 s which are calculated as the amount of test compound causing 50% inhibition or percent of inhibition at the named micromoles (μM) of LTB4 or PGF2.sbsb.α formation.

Cyclooxygenase = target: T2, Cyclooxygenase (Rattus norvegicus, UniProt Q63921); assay: ARBC whole cell cyclooxygenase assay (RBL-1 cells, PGF2α formation, RIA); type: cell-based; settings: RBL-1 whole cells; for IC50: calcium ionophore A23187 (5 μM), read-out: ARBC: IC50 for PGF2α inhibition; for inhibition at 10 µM: read-out: ARBC: Percent inhibition of PGF2α @ 10 μM
T2 construct: host or cells: RBL-1 (rat basophilic leukemia)
T2 sequence (Q63921 27-602): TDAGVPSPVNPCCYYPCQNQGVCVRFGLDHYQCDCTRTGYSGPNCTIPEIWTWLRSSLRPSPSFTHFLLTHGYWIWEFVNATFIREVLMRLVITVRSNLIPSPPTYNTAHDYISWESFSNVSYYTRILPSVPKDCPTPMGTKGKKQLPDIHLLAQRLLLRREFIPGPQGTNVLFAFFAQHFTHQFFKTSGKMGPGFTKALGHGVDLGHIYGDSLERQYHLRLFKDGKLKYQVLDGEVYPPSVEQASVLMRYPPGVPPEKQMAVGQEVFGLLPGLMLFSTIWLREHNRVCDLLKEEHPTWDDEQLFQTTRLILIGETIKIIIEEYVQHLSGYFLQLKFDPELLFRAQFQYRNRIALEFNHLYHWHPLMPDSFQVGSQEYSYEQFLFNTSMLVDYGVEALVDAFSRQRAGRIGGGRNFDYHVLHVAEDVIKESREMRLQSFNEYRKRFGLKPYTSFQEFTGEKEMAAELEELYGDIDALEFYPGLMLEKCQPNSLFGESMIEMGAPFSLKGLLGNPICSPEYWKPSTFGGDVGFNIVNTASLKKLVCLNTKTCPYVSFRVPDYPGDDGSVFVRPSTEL
Procedure: as §1, §2, §3, §4, §5

[1] = test system: Carrageenan-Induced Rat Foot Paw Edema; assay: Carrageenan-Induced Rat Foot Paw Edema-2 (CFE-2) Assay; type: in vivo; settings: dosed 1 hour before carrageenan, edema measured 5 hours after, probit analysis, read-out: CFE: ID40 for inhibition of swelling
Procedure: Carrageenan-Induced Rat Foot Paw Edema-2 (CFE-2) Assay: Protocol
Carrageenan solution (1% w/v) is prepared by dissolving 100 mg carrageenan (Marine Colloidal Div., Springfield, N.J.) in 10 mL of sterile saline (0.9) solution (Travenol). The solution is vortexed for 30 to 45 minutes. Animals are dosed with compound 1 hour before carrageenan challenge. Foot paw edema is induced by injecting 0.10 mL of the 1% carrageenan subcutaneously into the plantar portion of the right hind paw of each rat under light anesthesia. Initial foot paw volume is measured immediately following carrageenan challenge using mercury plethysmography (Buxco Electronics). Edema is measured 5 hours after carrageenan. The difference between the 5-hour and the initial paw volume is expressed as delta edema. The delta edema for each test group of animals is used to calculate the percent inhibition of edema achieved by the compound at the test dose compared with the vehicle control group. The data in Table 1 (the dose at which swelling is inhibited by the noted) is calculated by probit analysis for the dose at which percent inhibition occurs.

SMILES	IC50 (5-Lipoxygenase) [nM]	inhibition at 10 µM (5-Lipoxygenase) [%]	inhibition at 10 µM (Cyclooxygenase; A23187) [%]	further results
CC(C)(C)c1cc(Sc2n[nH]c(=O)o2)cc(C(C)(C)C)c1O [Example 6, 5-[[3,5-Bis(1,1-dimethylethyl)-4-hydroxyphenyl]thio]-1,3,4-oxadiazol-2(3H)-one]	–	–	–	inhibition at 16 µM (5-Lipoxygenase): 91%; ARBC: Percent inhibition of PGF2α (Cyclooxygenase; @ 16 (as printed in the cell), A23187): 46%
CC(C)(C)c1cc(Sc2n[nH]c(=O)s2)cc(C(C)(C)C)c1O [Example 8, 5[[3,5-Bis(1,1-dimethylethyl)-4-hydroxyphenyl]thio]-1,3,4-thiadiazol-2(3H)-one]	–	–	–	inhibition at 16 µM (5-Lipoxygenase): 90%
CC(C)(C)c1cc(Sc2n[nH]c(=S)s2)cc(C(C)(C)C)c1O [Example 9, 5-[[3,5-Bis(1,1-dimethylethyl)-4-hydroxyphenyl]thio]-1,3,4-thiadiazole-2(3H)-thione]	1100	–	–	IC50 (Cyclooxygenase): 3600 nM
CC(C)(C)c1cc(SCCc2nnco2)cc(C(C)(C)C)c1O [Example 15]	–	100	55	–
CC(C)(C)c1cc(SCCc2n[nH]c(=O)o2)cc(C(C)(C)C)c1O [Example 13, 5-[2-[[3,5-Bis(1,1-dimethylethyl)-4-hydroxyphenyl]thio]ethyl]-1,3,4-oxadiazol-2(3H)-one]	600	–	75	–
CC(C)(C)c1cc(CCc2n[nH]c(=O)o2)cc(C(C)(C)C)c1O [Example 23, 5-[2-[3,5-bis(1,1-dimethylethyl)-4-hydroxyphenyl]ethyl]-1,3,4-oxadiazol-2(3H)-one]	–	60	–	–
CC(C)(C)c1cc(Sc2n[nH]c(=S)o2)cc(C(C)(C)C)c1O [Example 7, 5-[[3,5-Bis(1,1-dimethylethyl)-4-hydroxyphenyl]thio]-1,3,4-oxadiazole-2(3H)-thione]	2000	–	–	IC50 (Cyclooxygenase): 1500 nM; ED40 [1]: 8.6 mg/kg
CC(C)(C)c1cc(Sc2nncs2)cc(C(C)(C)C)c1O [Example 10, 2,6-Bis(1,1-dimethylethyl)-4-[(1,3,4-thiadiazol-2-yl)thio]-phenol]	–	59	54	–
CC(C)(C)c1cc(SCCc2nnc(N)o2)cc(C(C)(C)C)c1O [Example 16]	–	100	–	–
CC(C)(C)c1cc(SCCc2n[nH]c(=S)o2)cc(C(C)(C)C)c1O [Example 14, 5-[2-[3,5-Bis(1,1-dimethylethyl)-4-hydroxyphenyl]thio]ethyl-1,3,4-oxadiazole-2(3H)-thione]	4200	–	–	–
CC(C)(C)c1cc(C(=O)c2n[nH]c(=S)s2)cc(C(C)(C)C)c1O [Example 31, [3,5-Bis(1,1-dimethylethyl)-4-hydroxphenyl][5(4H)-thioxo-1,3,4-thiadiazol-2-yl]methanone]	–	100	92	–
CSc1nnc(C(=O)c2cc(C(C)(C)C)c(O)c(C(C)(C)C)c2)s1 [Example 30]	–	100	100	–
CC(C)(C)c1cc(CCc2nnc(N)o2)cc(C(C)(C)C)c1O [Example 26, 4-[2-(5-Amino-1,3,4-oxadiazol-2-yl)ethyl]-2,6-bis(1,1-dimethylethyl)phenol]	–	40	–	–
CC(C)(C)c1cc(CCc2nnco2)cc(C(C)(C)C)c1O [Example 25, 2,6-Bis(1,1-dimethylethyl)-4-[2-(1,3,4-oxadiazol-2-yl)ethyl]phenol]	–	100	52	–
CC(C)(C)c1cc(C(=O)c2nnc(N)s2)cc(C(C)(C)C)c1O [Example 29, (5-Amino-1,3,4-thiadiazol-2-yl)[3,5-bis(1,1-dimethylethyl)-4-hydroxyphenyl]methanon]	1100	–	–	IC50 (Cyclooxygenase): 5200 nM
